Assay results taken from patent publication US20080069896A1, “Antitumor Composition” (Kabushiki Kaisha Sangi, priority 2004, published 2008).

What was measured:
Type in all cases: cell-based
LoVo = assay: MTT assay, human cancer cells LoVo; conditions: for Platinum content calculated from IC50 of human cancer cells by MTT assay: IC50 converted to platinum concentration; for IC50 of human cancer cells by MTT assay: colon cancer, HAP agents particle diameter 0.1 μm or less
Protocol: (§1) Effect of platinum tetrachloride/hydroxyapatite (PtCl4/HAP) and hexachloroplatinate/hydroxyapatite (H2PtCl6/HAP) against human cancer cells (MTT assay)
(§2) According to “in vitro toxicity test using MTT”, which is an ordinary test method, MTT assay was performed for PtCl4/HAP (particle diameter 0.1 μm or less), and H2PtCl6/HAP (particle diameter 0.1 μm or less) by using 19 types of human cancer cells. PtCl4/HAP and H2PtCl6/HAP were used by adjusting the final dispersion concentration to 1.0% in a dispersion liquid each containing 10% platinum as a theoretical value. For comparison, MTT assay was performed for PtCl4 and CDDP. PtCl4 was dissolved at an adequate dose, and then used after serial dilution with PBS (−). For CDDP, injection liquid from Malco was used.

[1] = test system: fibroblasts during proliferation stage; assay: Toxicity test during proliferation stage (MTT assay); conditions: rat fibroblasts, 48 hours; for IC50 in the toxicity test during proliferation stage: HAP agents particle diameter 0.1 μm or less
Excerpt: A male mature rat was deeply anesthetized with ether, and disinfected by wiping carefully its tail with alcohol. The tail end part was cut by several centimeters, and the skin was removed from coccyx. Tendon was attached to the coccyx, and by culturing the same, fibroblasts can be recovered. Coccyx part was further cut finely with a sterilized pair of scissors, and adhered on a sterilized plastic plate with the cut surface down. After resting the plate for a while, DMEM supplemented with 10% FBS was added thereto. In approximately one week, fibroblasts germinated from the coccyx part, and proliferated in the plate. The fibroblasts collected from rat tail end were used for the following experiment.
According to “in vitro toxicity test method using MTT” which is an ordinary test method, MTT assay was performed for PtCl4/HAP (particle diameter 0.1 μm or less) and H2PtCl6/HAP (particle diameter 0.1 μm or less). PtCl4/HAP and H2PtCl6/HAP were used by adjusting the final dispersion concentration to 1.0%, with a dispersion liquid each containing 10% platinum as a theoretical value. For comparison, MTT assay was performed for PtCl4 and CDDP. PtCl4 was dissolved at an adequate dose, and then used after serial dilution with PBS (−) For CDDP, injection liquid from Malco was used.
Fibroblasts during proliferation stage on the plate were peeled off with trypsin-EDTA, adjusted to 1×10^4/ml, and poured by aliquot of […] in a 96-well plate.
The 96-well plate added with fibroblasts was cultured for 24 hours, and samples serially diluted with PBS (−) were added by an amount of 10 μl. 48 hours after adding a test sample, 200 μl of PBS (−) was added to the 96-well plate, and approximately 1 min after, all the solution was removed. Immediately, 160 μl of DMSO was added to the plate. However, to the plates in which PtCl4/HAP and H2PtCl6/HAP were added, DMSO was added in an amount of 200 μl, respectively. Each plate was shaken for 5 min in a shaker, to dissolve completely the formed formazan. As it was believed that precipitation of PtCl4/HAP and H2PtCl6/HAP would suppress the colorization, the plates of PtCl4/HAP and H2PtCl6/HAP were rested for 5 min, and 160 μl of the supernatant was moved to another 96-well plate. Test samples for each cell and each concentration, the test was performed for 4 wells or more, and the optical density was measured by using a microplate at 550 nm.

KB = assay: MTT assay, human cancer cells KB; conditions: for Platinum content calculated from IC50 of human cancer cells by MTT assay: IC50 converted to platinum concentration; for IC50 of human cancer cells by MTT assay: oral cancer, HAP agents particle diameter 0.1 μm or less
Protocol: as §1, §2

SMILES | Platinum content calculated from IC50 of human cancer cells by MTT assay (LoVo) [ppm] | IC50 of human cancer cells by MTT assay (LoVo) [ppm] | Net Pt: platinum content wherein IC50 is converted to platinum concentration, proliferation stage [1] [ppm] | IC50 in the toxicity test during proliferation stage [1] [ppm] | Platinum content calculated from IC50 of human cancer cells by MTT assay (KB) [ppm] | IC50 of human cancer cells by MTT assay (KB) [ppm]
[Cl][Pt]([Cl])([Cl])[Cl] [PtCl4, platinum tetrachloride] | 3.8 | 6.6 | 2.3 | 4.0 | 8.7 | 15.0
[NH2][Pt]([NH2])([Cl])[Cl] [CDDP, cisplatin] | 10.3 | 15.8 | 0.3 | 0.5 | 4.1 | 6.3
